Data from patent US20250134895A1, “METHODS AND COMPOSITIONS FOR TREATING ALPHA-SYNUCLEIN-MEDIATED NEURODEGENERATION” (UNIVERSITY HEALTH NETWORK, priority 2021, published 2025).

Columns and labels:
[1] = system: full-length Gaussia princeps luciferase; assay: Activity of full-length Gaussia luciferase alone in H4 cells; assay type: cell-based; details: 10 μM, FIG. 14
Protocol: For controls in this assay, vehicle (i.e., DMSO), rapamycin, and bafilomycin A were used. Rapamycin, or sirolimus, is a small molecule that activates autophagy by inhibiting mTOR (mammalian target of rapamycin). […] To test this possibility, cells expressing α-synuclein were treated with each of the compounds and a cell permeable, resazurin-based assay was used to test for cell viability.
H4 neuroglioma cells (ATCC, HTB-148) were maintained in Dulbecco's Modified Eagle Medium plus high glucose, L-glutamine, and sodium pyruvate (ThermoFisher, 11995-065) with 10% heat-inactivated fetal bovine serum (ThermoFisher, 16140071) and 1% antibiotic-antimycotic cocktail (ThermoFisher, 15240062) at 37° C. and 5% CO2. DNA expression constructs encoding for full-length human α-synuclein fused to the N-terminal fragment of Gaussia princeps luciferase (syn-luc1), full-length human α-synuclein fused to the C-terminal fragment of Gaussia princeps luciferase (syn-luc2), and full-length Gaussia princeps luciferase were kindly provided by Dr. Pamela McLean, Mayo Clinic Jacksonville.^33 Cells were transiently co-transfected with syn-luc1 and syn-luc2 or transfected with luciferase alone using Superfect transfection reagent (Qiagen, 301305) according to the manufacturer's instructions. Twenty-four hours after transfection, cells were plated on a 96-well microplate at 60,000 cells per well. Twenty-four hours after plating, cells were treated with drugs or vehicle control. Following 24 hours of treatment, cells were washed 1 time with PBS and bioluminescence was measured using an automated CLARIOstar plate reader (Mandel, 430-0505). Cell permeable, native coelenterazine was used as the Gaussia luciferase substrate. Lyophilized coelenterazine (Nanolight, 303-500) was reconstituted in NanoFuel Solvent (Nanolight, 399-1), then diluted in PBS to 16.6 μg/mL, and dispensed per well to a final concentration of 20 μM). The bioluminescent signal generated by the luciferase enzyme was assessed at 470 nm over 5 seconds. Raw luminescence units were normalized to the DMSO vehicle control of each 96-well microplate. To assess cell viability, H4 neuroglioma cells were prepared and treated as described above and, 1 hour prior to viability analysis, cells were treated with PrestoBlue viability reagent (ThermoFisher, A13261) according to the manufacturer's instructions. Fluorescence was automatically measured using a CLARIOstar plate reader (Mandel, 430-0505) and then normalized to the fluorescence measure of the DMSO vehicle control.

[2] = system: transgenic A30P α-synuclein C. elegans; assay: Coiler score and locomotion of C. elegans expressing A30P α-synuclein in dopaminergic neurons; assay type: in vivo, Caenorhabditis elegans
Protocol: Using high-resolution, multi-worm tracking with custom image processing, methods were developed for semi-automated and blinded scoring of circularity for a population of simultaneously recorded animals (n=10 per recording). A coiler score was determined for the population tested by first calculating the circularity value for each animal in each frame of video and then calculating the proportion of circularity values >0.6. […] The coiler phenotype is an abnormal motor behaviour previously reported for several unc C. elegans strains with mutations affecting neuronal function.
Animals were synchronized by isolating eggs using alkaline hypochlorite treatment and hatching overnight. Larvae were plated onto NGM agar plates with OP50 and grown for 4 days before recording locomotion. For individual C. elegans recordings, a single adult animal was randomly picked, washed for 1 to 2 minutes in M9 buffer, and then transferred to a fresh NGM plate without food for imaging. Video images were acquired (2 frames per second) for up to 6 minutes using a sCMOS camera (pco.edge, PCO) mounted on a stereomicroscope (Olympus MVX10 MacroView) controlled using the μManager software.^55 A total of 40 individual animals were imaged for each strain. For C. elegans population recordings, ten adult animals were randomly removed using an eyelash pick, washed for 1 minute in M9 buffer, and then transferred to a fresh NGM plate without food, with a ring of copper sulfate solution (150 mM) around the area of recording (a chemorepellent to keep the animals in the recording frame). Exploratory locomotion was recorded using a CCD camera (GX1920, Allied Vision) which was attached to a dissecting stereomicroscope (Leica M165C, 1.0× PlanApo lens). A Labview program captured video (2 frames per second) at 1936×1456 resolution. Using ImageJ, the displacement, perimeter, and area of each animal was calculated, from which a circularity value was computed using the following formula: circularity=4π(A/P^2), where A is the area of the animal's body and P is the perimeter of the animal's body (both expressed in arbitrary pixel units). […] Using MATLAB (Mathworks), various behavioural metrics including the coiler score were calculated, which is the percentage of frames with a circularity value >0.6. Speed was automatically computed from the ImageJ based WrmTrk plugin as the distance travelled by each animal (in pixels) over the amount of time that it was tracked (in seconds).56 Average speed was determined by calculating the weighted average of each tracked animal's speed within a single population of animals. On the day of the recording for dopamine or raclopride treatment, adult animals were washed for 1 minute in M9 buffer, treated in a solution containing either drug for 1 minute, and then placed onto fresh NGM plates without food, with a copper sulfate solution ring around the area of recording. […] Drug plates were prepared by adding each drug to LB medium with OP50 before spreading onto fresh NGM plates. The solvent used to dissolve each drug was used as vehicle control for the drug treatment experiments (M9 buffer for dopamine, distilled water for raclopride, DMSO for all other drugs).
After 72 hours of drug treatment, animals were randomly picked, washed, and recorded. A total of ten worms were recorded per population, and twelve populations were recorded for each of the four treatment groups. Locomotion was recorded for each population over a total of 1800 frames over three minutes. The animal's movement speed, area, and perimeter were automatically analyzed as previously described. Coiler score was calculated automatically using a ratio of the animal's area to perimeter, where a higher coiler score would represent a greater degree of α-synuclein-induced dopaminergic neuron dysfunction in vivo.

Nc1nc(NC2CC2)c2ncn([C@H]3C=C[C@@H](CO)C3)c2n1 [Abacavir, abacavir]
changes in the activity of full-length Gaussia luciferase alone [1]: No statistically significant changes | locomotor speed ([2]; 100 μM of drug): No significant differences | effect on coiling / coiler score ([2]; 100 μM, 72 hr, vs DMSO vehicle): significantly reduced
